Laboratory results: ChEMBL document CHEMBL4265990, “Synthesis, anticancer activity and cytotoxicity of galactosylated epothilone B” (Bioorg Med Chem, 2018)

Key:
[1] = tested on: MCF7; test: Antiproliferative activity against human MCF7 cells at 0.01 to 100 nmol/L after 2 days by MTT assay; assay type: functional
[2] = tested on: MCF7; test: Antiproliferative activity against human MCF7 cells after 2 days by MTT assay; assay type: functional, cell-based; conditions: for IC50: MCF7, 48 h

Structure (SMILES)	Activity [1]	IC50 [2] [nM]	Activity [2]
C/C(=C\c1csc(C)n1)[C@@H]1C[C@@H]2O[C@]2(C)CCC[C@H](C)[C@H](OC(=O)CO[C@@H]2O[C@H](CO)[C@H](O)[C@H](O)[C@H]2O)[C@@H](C)C(=O)C(C)(C)[C@@H](O)CC(=O)O1	7.9 - 98.6%	5730	
C/C(=C\c1csc(C)n1)[C@@H]1C[C@@H]2O[C@]2(C)CCC[C@H](C)[C@H](O)[C@@H](C)C(=O)C(C)(C)[C@@H](O)CC(=O)O1 [PATUPILONE]	3 - 80.3%	38.2	Dose-dependent effect
